Reference: US20250051862A1, “METHODS AND COMPOSITIONS RELATED TO ENGINEERED BIOSENSORS” (priority 2021, published 2025)
Values after ≈ are worked out from the molar mass of the structure shown.

What was measured:
[1] = Solubility limit of BIAs in 1% DMSO; format: physicochemical; conditions: used as maximum ligand concentration
Protocol: (a) Transfer functions for all four generations of RamR variants with five different BIAs. The maximum ligand concentration was chosen based on the compound's solubility limit in 1% DMSO, 100 μM for Noscapine and 250 μM for all other BIAs. Fluorescent measurements for each condition were an average of three biological replicates. (b) Background fluorescence measurements for all RamR generations. The same promoter was used to express variants from each evolutionary trajectory (see methods) (c) Orthogonality matrix of all evolved sensors. Fold-response is shown for all BIAs for the native RamR protein, the first, second, third, and fourth generations from top to bottom, respectively. 100 μM of the indicated BIA was applied in all conditions. Measurements for each condition were an average of three biological replicates.

RamR = biological target: T1, RamR (Salmonella typhimurium, UniProt Q8ZR43); assay: Biosensor response assay: fluorescence response of multidrug resistance regulators to target BIAs; format: cell-based, Escherichia coli; conditions: E. coli DH10B, pReg + pGFP (sfGFP); glaucine 1 mM, noscapine 100 uM, papaverine 500 uM, rotundine 250 uM, tetrahydropapaverine 1 mM
T1 construct: expressed in transfected cells; host or cells: E. coli DH10B co-transformed with pReg (regulator) and pGFP (reporter)
T1 sequence (Q8ZR43 whole entry, looked up): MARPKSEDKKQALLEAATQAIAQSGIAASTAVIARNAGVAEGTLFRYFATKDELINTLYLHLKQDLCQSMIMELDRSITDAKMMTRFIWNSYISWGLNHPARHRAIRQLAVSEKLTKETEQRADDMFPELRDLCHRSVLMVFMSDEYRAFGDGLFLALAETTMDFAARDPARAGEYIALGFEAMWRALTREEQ
Protocol: To identify a biosensor with some degree of BIA affinity to serve as a suitable scaffold for evolution, the responsiveness of six well characterized multidrug resistance regulators, QacR, TtgR, RamR, SmeT, NalD, and Bm3R1 to the target BIAs were assayed. Regulators were constitutively expressed on one plasmid (pReg) that was co-transformed with another plasmid bearing the regulator's cognate promoter expressing sfGFP (pGFP). Promoters for QacR and TtgR were obtained from the literature while promoters for the remainder were designed by either placing the sensor's operator downstream a medium strength promoter (Bm3R1) or by modifying the −35 or −10 regions of the sensor's native promoter towards the E. coli consensus (NalD, SmeT, RamR) [18*, 18**] if necessary to produce sufficient transcription (FIG. 7a). The ability of each regulator to repress transcription was confirmed by measuring the promoter activity with and without the expression of the cognate sensor via fluorescence (FIG. 7b). […]
Promoters for TtgR and QacR were derived from the literature. […] 100 μL of the cell resuspension for each condition was transferred to a 96 well microtiter plate (Corning, Product #: 3904), from which the fluorescence (Ex: 485 nm, Em: 509 nm) and absorbance ([…]) was measured using the Tecan Infinite M1000 plate reader.

## COc1ccc2c(c1OC)C(=O)O[C@@H]2[C@H]1c2c(cc3c(c2OC)OCO3)CCN1C [Noscapine, noscapine]
[1]
  solubility limit in 1% DMSO: 100 µM (≈ 41.3 µg/mL)

B1: RamR: multidrug resistance regulator from Salmonella typhimurium, template for sensor evolution (protein)
chain: MVARPKSEDKKQALLEAATQAIAQSGIAASTAVIARNAGVAEGTLFRYFATKDELINTLYLHLRQDLCQSLIMELDRSITDAKMMMRFIWNSGISWGLNHPARHRAIRQLAVSEKLTKETHQRDLDMFPELRDILHRRVLMVFMSDEYRAFGDGLFLALAETTMDFAARDPARAGEYIALGFEAMWRALTREEQ
modifications: Description of sequence peptide sensor; Name PAP4; This sensor binds to papaverine
notes: multidrug resistance regulator from Salmonella typhimurium, template for sensor evolution
RamR
  Fluorescence response to target BIAs: moderately responsive
